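48-hour exposure; five concentrations; linearly interpolated endpoints. GI50: concentration for 50% inhibition of growth.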 Activity calls are given as the source filed them. Cut-off read from the data, not from the text of the source: active = GI50 up to about 1.1 µM and inactive = higher.
What was measured:
Assay in all cases: NCI-60 cell line screen, 48 h
SK-OV-3 = test system: SK-OV-3
A498 = test system: A498
KM12 = test system: KM12
UACC-62 = test system: UACC-62
TK-10 = test system: TK-10
M14 = test system: M14
COLO 205 = test system: COLO 205
HT-29 = test system: HT-29
SNB-78 = test system: SNB-78
RXF 631 = test system: RXF 631
HOP-92 = test system: HOP-92
786-0 = test system: 786-0
ACHN = test system: ACHN
OVCAR-4 = test system: OVCAR-4
DLD-1 = test system: DLD-1
CAKI-1 = test system: CAKI-1
NCI-H226 = test system: NCI-H226
SW-620 = test system: SW-620
UO-31 = test system: UO-31
EKVX = test system: EKVX
HL-60 = test system: HL-60
NCI-H23 = test system: NCI-H23
SK-MEL-28 = test system: SK-MEL-28
CCRF-CEM = test system: CCRF-CEM
SNB-75 = test system: SNB-75
HCT-116 = test system: HCT-116
SK-MEL-2 = test system: SK-MEL-2
DMS-273 = test system: DMS-273
SN12C = test system: SN12C
LXFL 529 = test system: LXFL 529
IGROV-1 = test system: IGROV-1
A549 = test system: A549
M19-MEL = test system: M19-MEL
NCI-H522 = test system: NCI-H522
SF-295 = test system: SF-295
RXF 393 = test system: RXF 393
LOX IMVI = test system: LOX IMVI
HOP-62 = test system: HOP-62
OVCAR-8 = test system: OVCAR-8
OVCAR-3 = test system: OVCAR-3
SR = test system: SR
UACC-257 = test system: UACC-257
HCT-15 = test system: HCT-15
KM-20L2 = test system: KM-20L2
OVCAR-5 = test system: OVCAR-5
U-251 = test system: U-251
SK-MEL-5 = test system: SK-MEL-5
NCI-H460 = test system: NCI-H460
RPMI-8226 = test system: RPMI-8226
XF498 = test system: XF498
HOP-18 = test system: HOP-18
SF-268 = test system: SF-268
Malme-3M = test system: Malme-3M
K562 = test system: K562
SF-539 = test system: SF-539
HCC 2998 = test system: HCC 2998
DMS-114 = test system: DMS-114
SNB-19 = test system: SNB-19
MOLT-4 = test system: MOLT-4

Measured: GI50

O=C(Nc1nc2c(ncn2C2OC(CO)C(O)C2O)c(=O)[nH]1)c1ccccc1 (stereo not given)
> 100 µM: HCT-15
inactive: SK-OV-3 > 100 µM | A498 > 100 µM | KM12 > 100 µM | UACC-62 > 100 µM | TK-10 > 100 µM | M14 > 100 µM | COLO 205 > 100 µM | HT-29 > 100 µM | SNB-78 > 100 µM | RXF 631 > 100 µM | HOP-92 > 100 µM | 786-0 > 100 µM | ACHN > 100 µM | OVCAR-4 > 100 µM | DLD-1 > 100 µM | CAKI-1 > 100 µM | NCI-H226 > 100 µM | SW-620 > 100 µM | UO-31 > 100 µM | EKVX > 100 µM | HL-60 > 100 µM | NCI-H23 > 100 µM | SK-MEL-28 > 100 µM | CCRF-CEM 2.5 µM | SNB-75 > 100 µM | HCT-116 > 100 µM | SK-MEL-2 > 100 µM | DMS-273 > 100 µM | SN12C > 100 µM | LXFL 529 > 100 µM | IGROV-1 > 100 µM | A549 > 100 µM | M19-MEL > 100 µM | NCI-H522 93.3 µM | SF-295 > 100 µM | RXF 393 63 µM | LOX IMVI > 100 µM | HOP-62 > 100 µM | OVCAR-8 > 100 µM | OVCAR-3 > 100 µM | SR > 100 µM | UACC-257 > 100 µM | KM-20L2 > 100 µM | OVCAR-5 > 100 µM | U-251 > 100 µM | SK-MEL-5 > 100 µM | NCI-H460 > 100 µM | RPMI-8226 > 100 µM | XF498 > 100 µM | HOP-18 > 100 µM | SF-268 > 100 µM | Malme-3M > 100 µM | K562 > 100 µM | SF-539 > 100 µM

ICC1CCCO1 (stereo not given)
> 100 µM: HCT-15
inactive: A498 > 100 µM | KM12 > 100 µM | TK-10 > 100 µM | M14 > 100 µM | COLO 205 > 100 µM | HT-29 > 100 µM | SNB-78 > 100 µM | RXF 631 > 100 µM | HOP-92 > 100 µM | ACHN > 100 µM | OVCAR-4 > 100 µM | DLD-1 > 100 µM | CAKI-1 > 100 µM | NCI-H226 > 100 µM | SW-620 > 100 µM | EKVX > 100 µM | HL-60 > 100 µM | NCI-H23 > 100 µM | SK-MEL-28 > 100 µM | CCRF-CEM > 100 µM | HCC 2998 > 100 µM | SNB-75 > 100 µM | HCT-116 > 100 µM | SK-MEL-2 > 100 µM | DMS-273 > 100 µM | DMS-114 > 100 µM | SN12C > 100 µM | LXFL 529 > 100 µM | IGROV-1 > 100 µM | A549 > 100 µM | SF-295 > 100 µM | RXF 393 > 100 µM | LOX IMVI > 100 µM | SNB-19 > 100 µM | OVCAR-8 > 100 µM | SR > 100 µM | UACC-257 > 100 µM | MOLT-4 > 100 µM | KM-20L2 > 100 µM | OVCAR-5 > 100 µM | U-251 > 100 µM | SK-MEL-5 > 100 µM | NCI-H460 > 100 µM | RPMI-8226 > 100 µM | XF498 > 100 µM | HOP-18 > 100 µM | SF-268 > 100 µM | Malme-3M > 100 µM | SF-539 > 100 µM

CC(C)(C)[C@H]1CO[C@]2(C)[C@@H]3C[C@@H]3C(=O)N12
> 100 µM: HCT-15
inactive: SK-OV-3 > 100 µM | KM12 > 100 µM | UACC-62 > 100 µM | TK-10 > 100 µM | M14 > 100 µM | COLO 205 > 100 µM | HT-29 > 100 µM | SNB-78 > 100 µM | RXF 631 > 100 µM | HOP-92 > 100 µM | 786-0 > 100 µM | ACHN > 100 µM | OVCAR-4 > 100 µM | DLD-1 > 100 µM | CAKI-1 > 100 µM | NCI-H226 > 100 µM | SW-620 > 100 µM | UO-31 > 100 µM | EKVX > 100 µM | HL-60 > 100 µM | NCI-H23 > 100 µM | SK-MEL-28 > 100 µM | CCRF-CEM > 100 µM | HCC 2998 > 100 µM | SNB-75 > 100 µM | HCT-116 > 100 µM | SK-MEL-2 > 100 µM | DMS-273 > 100 µM | DMS-114 > 100 µM | SN12C > 100 µM | IGROV-1 > 100 µM | A549 > 100 µM | M19-MEL > 100 µM | NCI-H522 > 100 µM | SF-295 > 100 µM | RXF 393 > 100 µM | LOX IMVI > 100 µM | SNB-19 > 100 µM | HOP-62 > 100 µM | OVCAR-8 > 100 µM | OVCAR-3 > 100 µM | SR > 100 µM | UACC-257 > 100 µM | KM-20L2 > 100 µM | OVCAR-5 > 100 µM | U-251 > 100 µM | SK-MEL-5 > 100 µM | NCI-H460 > 100 µM | RPMI-8226 > 100 µM | XF498 > 100 µM | SF-268 > 100 µM | Malme-3M > 100 µM | K562 > 100 µM | SF-539 > 100 µM
